Here are results for three compounds from patent US20200009248A1, “TARGETING TGR5 TO TREAT DISEASE” (Mayo Foundation for Medical Education and Research, priority 2014, published 2020).

Each structure is given as a SMILES string. Entries after “also recorded” stand apart in the source; their conditions may differ.

Data set [1] has as its system control and cystic cholangiocytes. Put plainly: cAMP production (Bridge-It cAMP assay) in cholangiocytes treated with TGR5 agonists. It is filed as cell-based, rat, human. The note with it: 25 μM, 30 minutes; for cAMP production: ciliated cystic cholangiocytes (PCK rat, human ADPKD).
Method: Production of cAMP was detected using a Bridge-It cAMP designer cAMP assay (Mediomics, St. Lou is, MO) according to manufacturer's protocol. […] Forskolin (10^−6M for 15 min) served as a control.
Data set [2] relates to Gαi and Gαs proteins, TGR5. The note with it: PCK rats in vivo, immunofluorescence. From the text: (§1) Control PCK rats (n=8) received equal doses of DMSO. Drug concentrations were adjusted to the animal weight weekly. After 6 weeks of treatment, rats were sacrificed and body and organ weights assessed. […] Hepatic and renal cystic and fibrotic areas were expressed as a percentage of total hepatic or renal parenchyma, respectively.

In data set [3] the test system is Gαi and Gαs proteins. Put plainly: Western blot of Gαi and Gαs proteins in control and cystic cholangiocytes with or without OA. It is filed as cell-based. The procedure: Western blotting. Briefly, proteins were separated by 4-15% SDSPAGE, transferred to nitrocellulose membranes (Bio-Rad, Hercules, Calif.), and incubated overnight at 4° C. with antibodies against TGR5 (Santa Cruz Biotechnology), Gas (Abcam, Cambridge, Mass.), and Gαi (Cell Signaling Technology, Danvers, Mass.). Actin antibody was used to assure equal protein loading. Membranes were washed and incubated for 1 hour at room temperature with the corresponding horseradish peroxidase-conjugated (Invitrogen) or IRDYE® 680 or 800 (Odyssey) secondary antibodies. Bands were visualized with the ECL Plus Western Blotting Detection kit (BD Biosciences, San Jose, Calif.) or Odyssey Li-Cor Scanner (Li-Cor, Lincoln, Nebr.).

In data set [4] the test system is ADPKD cholangiocytes. The data set can be described thus: Three-dimensional culture of cystic cholangiocytes, cyst growth. It is filed as cell-based, human. The note with it: ADPKD cholangiocytes with TGR5 depleted by shRNA. From the text: Control and cystic rat cholangiocytes (derived from wild type and PCK rats, respectively), and control and cystic human cholangiocytes (derived from healthy humans and ADPKD patients, respectively) were used. Cells were isolated and maintained as described elsewhere (Masyuk et al., Hepatol 2013, 58:409-421). […] C1 and C2 were synthesized in the Sanford-Burnham Medical Research Institute at >95% purity by HPLC following a procedure outlined elsewhere (Piotrowski et al., ACS Med Chem Lett 2013, 4:63-68; and Evans et al., J Med Chem 2009, 52:7962-7965). PCK and ADPKD cholangiocytes were stably transfected with TGR5 shRNAs or control shRNAs (Santa Cruz Biotechnology, Santa Cruz, Calif.). Rodents were maintained on a standard diet and water ad lib. […]
Cultured cholangiocytes and cystic bile ducts freshly isolated by microdissection from PCK rats were grown in three-dimensional matrices as described elsewhere (Masyuk et al., Am J Pathol 2014, 184:110-121; and Masyuk et al., Am J Pathol 2004, 165:1719-1730) and treated with TLCA and OA (both, […]) daily. […] The circumferential area of each cyst was measured using ImageJ software (National Institutes of Health, Bethesda, Md.) as described elsewhere (Masyuk et al., Am J Pathol 2014, 184:110-121). Data were expressed as percent change at day 3 compared to day 1.

Data set [5] relates to PCK rats. Put plainly: Hepato-renal cystogenesis in PCK rats treated with OA for 6 weeks. It is filed as in vivo. Conditions: 25 mg/kg bw intraperitoneally daily; for hepato-renal cystogenesis: 25 mg/kg.
Source text: as §1

Data set [6] concerns cystic bile ducts from PCK rats. The data set can be described thus: Three-dimensional culture of cystic bile ducts, cyst growth. The note with it: 25 μm daily, day 3 vs day 1, compared to untreated. It is filed as cell-based, rat. Here is the method:
Cultured cholangiocytes and cystic bile ducts freshly isolated by microdissection from PCK rats were grown in three-dimensional matrices as described elsewhere (Masyuk et al., Am J Pathol 2014, 184:110-121; and Masyuk et al., Am J Pathol 2004, 165:1719-1730) and treated with TLCA and OA (both, […]) daily. Images were taken at days 1 (i.e., 24 hours after seeding) and 3. The circumferential area of each cyst was measured using ImageJ software (National Institutes of Health, Bethesda, Md.) as described elsewhere (Masyuk et al., Am J Pathol 2014, 184:110-121). Data were expressed as percent change at day 3 compared to day 1.

Where [7] appears, read: ciliated control cholangiocytes (rat, human).
Setting [8] is: non-ciliated control and cystic cholangiocytes (rat, human).

Consider `CCNc1nc2c(c(C(N)=O)n1)CN(C(=O)CCc1ccc(OC(F)(F)F)cc1)CC2` [C1, 2-(ethylamino)-6-(3-(4-(trifluoromethoxy)phenyl)propanoyl)-5,6,7,8-tetrahydropyrido[4,3-d]pyrimidine-4-carbox-amide], for which the cAMP levels result in data set [1] (setting [7]) is given as “decreased cAMP levels”; in data set [1] (setting [8]), “elevated cAMP”. Besides, the cAMP production entry in data set [1] is listed as “increasing cAMP production”.
In the same order, the values of `Cc1onc(-c2ccccc2Cl)c1C(=O)N(C)c1ccc(Cl)cc1` [C2, 3-(2-chlorophenyl)-N-(4-chlorophenyl)-N,5-dimethylisoxazole-4-carboxamide] are “decreased cAMP levels”, “elevated cAMP” and “increasing cAMP production”.
Consider `CC1(C)CC[C@]2(C(=O)O)CC[C@]3(C)C(=CC[C@@H]4[C@@]5(C)CC[C@H](O)C(C)(C)[C@@H]5CC[C@]43C)[C@@H]2C1` [OA, oleanolic acid], for which, in data set [1] (setting [7]), the cAMP levels entry is “decreased cAMP levels”. In addition, the cAMP production entry in data set [1] is recorded as “increasing cAMP production”. Also, the cAMP levels result in data set [1] (setting [8]) is “elevated cAMP”. Besides, the “expression of Gα proteins” value in data set [2] is reported as “does not affect”. Also, the “expression of Gαi and Gαs proteins” value in data set [3] is on record as “no effects; also recorded: did not affect”. Besides, the “growth of cystic structures in 3-D culture after TGR5 depletion” value in data set [4] is listed as “abolished the effects”. For the same compound, in data set [5], the “mortality or toxicity (e.g., hair or weight loss)” value is listed as “no mortality or toxicity” and the tolerability result is “well tolerated”. In data set [5] (compared to control PCK rats), the “increase of hepatic cystic areas” value amounted to 31%, the “increase of hepatic fibrotic areas” value is reported as 20%, the “increase of kidney weights” value was 11% and the “increase of liver weights” value is listed as 12%. Besides, in data set [5] (compared to control PCK rats), the “increase of renal cystic areas” value was 19% and the “increase of renal fibrotic areas” value is given as 30%. In data set [5] (listed as Oleanolic Acid), the hepato-renal cystogenesis entry is listed as “Increases”. Besides, the hepato-renal cystogenesis entry in data set [5] (listed as oleanolic acid) was “increases”. In data set [6], the “growth of cystic structures (cyst expansion) in 3-D culture” value was “accelerated cyst expansion”.
